{"source": "paper PMC7761018", "about": "“Green Tea Catechins Induce Inhibition of PTP1B Phosphatase in Breast Cancer Cells with Potent Anti-Cancer Properties: In Vitro Assay, Molecular Docking, and Dynamics Studies” (Antioxidants, 2020)", "molecular_target": "T1, PTP1B (Homo sapiens, UniProt P18031)", "T1 construct": "gene PTPN1", "T1 sequence (P18031 1-435)": "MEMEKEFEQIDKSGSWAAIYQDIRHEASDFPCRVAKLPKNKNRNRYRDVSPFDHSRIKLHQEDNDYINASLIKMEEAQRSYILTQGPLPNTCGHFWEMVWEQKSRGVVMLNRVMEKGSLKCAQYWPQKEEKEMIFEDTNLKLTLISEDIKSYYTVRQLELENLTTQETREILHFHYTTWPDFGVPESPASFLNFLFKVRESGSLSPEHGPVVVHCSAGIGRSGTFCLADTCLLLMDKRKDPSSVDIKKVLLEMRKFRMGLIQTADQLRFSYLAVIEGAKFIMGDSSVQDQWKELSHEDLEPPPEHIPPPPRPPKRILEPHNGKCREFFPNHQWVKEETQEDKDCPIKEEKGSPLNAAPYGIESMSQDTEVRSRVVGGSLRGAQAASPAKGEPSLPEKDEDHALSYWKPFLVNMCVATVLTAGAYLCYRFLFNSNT", "assay": "recombinant PTP1B pNPP hydrolysis assay, absorbance at […] nm", "assay_type": "biochemical"}
{"smiles": "Oc1cc(O)c2c(c1)O[C@H](c1cc(O)c(O)c(O)c1)[C@H](O)C2", "note": "[EGC, epigallocatechin]", "values": [{"measurement": "IC50", "result": "104 ± 10.1", "unit": "µM"}]}
